Test results published in patent publication US9580451B2, “Sulfonic esters of metal oxides and methods of their use” (California Institute of Technology, priority 2013, dated 2017).

Assay: Relative fluorescence quantum yield measurement
Assay type: physicochemical
Conditions: degassed toluene, tetraphenylporphyrin as standard
Method: The Φem measurements were performed using degassed toluene solutions of 1,1-Al, 1-Ga, and tetraphenylporphyrin (as a standard). Samples were excited at λex=355 nm and the emission was observed from λem=500-800 nm. The standard tetraphenylporphyrin was excited at λex=514 nm and the emission was observed from λem=500-800 nm. Φem for tetraphenylporphyrin is 0.11.3 All relative fluorescence quantum yields were calculated based on the corresponding fluorescence spectra of the samples and the standard according to the equation: […]
where Φem(s) and Φem(x) are the relative fluorescence quantum yield of the standard and sample, respectively; As and Ax are the absorbance at the excitation wavelength for the standard and sample, respectively; Fs and Fx are the area under the corrected emission curve for the standard and sample, respectively; and ηs and ηx are the refractive index of the solvent used for the standard and sample, respectively.

Question: For `O=S(=O)(Cl)C1=Cc2nc1c(-c1c(F)c(F)c(F)c(F)c1F)c1ccc([nH]1)c(-c1c(F)c(F)c(F)c(F)c1F)c1ccc([nH]1)c(-c1c(F)c(F)c(F)c(F)c1F)c1cc(S(=O)(=O)Cl)c2[nH]1` [compound 1, 2,17-bischlorosulfonato-5,10,15-tris(pentafluorophenyl)corrole], which “φem, relative emission quantum yield” value is on record?
Answer: 0.094
